From PMC12121777 (PLOS One, 2025)
Values after ≈ are worked out from the molar mass of the structure shown. Where two headings read alike, the source gives them in different places.

Experiments:
Mtb 331/88 (i.e., H37Rv) = experiment: MIC, micro method in Šula's semisynthetic medium, drug-susceptible Mtb; format: cell-based, Mycobacterium tuberculosis; conditions: for MIC: Mycobacterium tuberculosis, H37RV
HepG2 cells = experiment: Cytotoxicity on HepG2 cell line (CellTiter 96); format: cell-based, human; conditions: for IC50: read-out: IC50 HepG2
[1] = tested on: Mycobacterium avium 330/88; experiment: MIC, micro method in Šula's semisynthetic medium, M. avium; format: cell-based
[2] = tested on: Mycobacterium kansasii 6509/96; experiment: MIC, micro method in Šula's semisynthetic medium, M. kansasii clinical isolate; format: cell-based; conditions: read-out: MIC M. kansasii 6509/96
[3] = 330/88, 336 h, read-out: MIC M. avium 330/88
[4] = 330/88, 504 h, read-out: MIC M. avium 330/88

Row | Structure (SMILES) | MIC (Mtb 331/88 (i.e., H37Rv); 336 h, 14 days) [µM] | MIC (Mtb 331/88 (i.e., H37Rv); 504 h, 21 days) [µM] | IC50 (HepG2 cells; Homo sapiens, HepG2, 24 h) [µM] | MIC [1, 3] [µM] | MIC [1, 4] [µM] | MIC ([2]; 6509/96, 168 h) [µM] | MIC ([2]; 6509/96, 336 h) [µM] | MIC ([2]; 6509/96, 504 h) [µM] | MIC ([1]; 330/88, read-out: MIC M. avium) [µM] | fold more potent than precursor 4 against Mtb (Mtb 331/88 (i.e., H37Rv); oxadiazole 5 vs hydrazinecarboxamide 4 counterpart) [fold] | selectivity (SI) for M. avium (HepG2 cells; ratio of IC50 (HepG2) to MIC) | IC50 (HepG2 cells) [µM]
1 | CCCCCCCCCNc1nnc(-c2cc([N+](=O)[O-])cc([N+](=O)[O-])c2)o1 [Compound 5i, 5-(3,5-Dinitrophenyl)-N-nonyl-1,3,4-oxadiazol-2-amine] | 0.06 (≈ 0.0226 µg/mL) | 0.06 (≈ 0.0226 µg/mL) | > 100 | 8 (≈ 3.02 µg/mL) | 16 (≈ 6.04 µg/mL) | ≤ 0.03 | 0.06 (≈ 0.0226 µg/mL) | 0.06 (≈ 0.0226 µg/mL) |  |  |  | 
2 | CCCCNc1nnc(-c2cc([N+](=O)[O-])cc([N+](=O)[O-])c2)o1 [Compound 5d, N-Butyl-5-(3,5-dinitrophenyl)-1,3,4-oxadiazol-2-amine] | 0.5 (≈ 0.154 µg/mL) | 0.5 (≈ 0.154 µg/mL) | > 250 | 64 (≈ 19.7 µg/mL) | 125 (≈ 38.4 µg/mL) | 1 (≈ 0.307 µg/mL) | 2 (≈ 0.615 µg/mL) | 2 (≈ 0.615 µg/mL) |  |  |  | 
3 | CCCCCCNC(=O)NNC(=O)c1cc([N+](=O)[O-])cc([N+](=O)[O-])c1 [Compound 4f, 2-(3,5-Dinitrobenzoyl)-N-hexylhydrazine-1-carboxamide] | 1 (≈ 0.353 µg/mL) | 1 (≈ 0.353 µg/mL) | 119 | 250 (≈ 88.3 µg/mL) | 250 (≈ 88.3 µg/mL) | 1 (≈ 0.353 µg/mL) | 1 (≈ 0.353 µg/mL) | 1 (≈ 0.353 µg/mL) | 125 to 250 (≈ 44.2 to 88.3 µg/mL) |  |  | 
4 | CCCCCNc1nnc(-c2cc([N+](=O)[O-])cc([N+](=O)[O-])c2)o1 [Compound 5e, 5-(3,5-Dinitrophenyl)-N-pentyl-1,3,4-oxadiazol-2-amine] | 0.25 (≈ 0.0803 µg/mL) | 0.25 (≈ 0.0803 µg/mL) | > 250 | > 500 | > 500 | 0.25 (≈ 0.0803 µg/mL) | 0.5 (≈ 0.161 µg/mL) | 0.5 (≈ 0.161 µg/mL) |  |  |  | 
5 | CCCCCCNc1nnc(-c2cc([N+](=O)[O-])cc([N+](=O)[O-])c2)o1 [Compound 5f, 5-(3,5-Dinitrophenyl)-N-hexyl-1,3,4-oxadiazol-2-amine] | ≤ 0.03 | ≤ 0.03 | > 100 | ≤ 1 | ≤ 1 | 0.25 (≈ 0.0838 µg/mL) | 0.5 (≈ 0.168 µg/mL) | 0.5 (≈ 0.168 µg/mL) | 1 (≈ 0.335 µg/mL) | ≥ 33.3 | > 100 | 
6 | CCCCCCCCCCCCCCNC(=O)NNC(=O)c1cc([N+](=O)[O-])cc([N+](=O)[O-])c1 [Compound 4n, 2-(3,5-Dinitrobenzoyl)-N-tetradecylhydrazine-1-carboxamide] | 4 (≈ 1.86 µg/mL) | 8 (≈ 3.72 µg/mL) | 207 | > 500 | > 500 | 4 (≈ 1.86 µg/mL) | 8 (≈ 3.72 µg/mL) | 8 (≈ 3.72 µg/mL) |  |  |  | 
7 | CCCCCCCCCCCCCNC(=O)NNC(=O)c1cc([N+](=O)[O-])cc([N+](=O)[O-])c1 [Compound 4m, 2-(3,5-Dinitrobenzoyl)-N-tridecylhydrazine-1-carboxamide] | 2 (≈ 0.903 µg/mL) | 4 (≈ 1.81 µg/mL) | 163 | > 500 | > 500 | 2 (≈ 0.903 µg/mL) | 2 (≈ 0.903 µg/mL) | 4 (≈ 1.81 µg/mL) |  |  |  | 
8 | CCCCCCCCNc1nnc(-c2cc([N+](=O)[O-])cc([N+](=O)[O-])c2)o1 [Compound 5h, 5-(3,5-Dinitrophenyl)-N-octyl-1,3,4-oxadiazol-2-amine] | 0.06 (≈ 0.0218 µg/mL) | 0.06 (≈ 0.0218 µg/mL) | > 100 | 8 (≈ 2.91 µg/mL) | 16 (≈ 5.81 µg/mL) | ≤ 0.03 | 0.06 (≈ 0.0218 µg/mL) | 0.06 (≈ 0.0218 µg/mL) |  |  |  | 
9 | CCCCCCCCCCCCCCNc1nnc(-c2cc([N+](=O)[O-])cc([N+](=O)[O-])c2)o1 [Compound 5n, 5-(3,5-Dinitrophenyl)-N-tetradecyl-1,3,4-oxadiazol-2-amine] | 1 (≈ 0.448 µg/mL) | 1 (≈ 0.448 µg/mL) | > 50 | 8 (≈ 3.58 µg/mL) | 16 (≈ 7.16 µg/mL) | 0.25 (≈ 0.112 µg/mL) | 0.5 (≈ 0.224 µg/mL) | 1 (≈ 0.448 µg/mL) |  |  |  | 
10 | CCCCCCCCCCCCCNc1nnc(-c2cc([N+](=O)[O-])cc([N+](=O)[O-])c2)o1 [Compound 5m, 5-(3,5-Dinitrophenyl)-N-tridecyl-1,3,4-oxadiazol-2-amine] | 0.125 (≈ 0.0542 µg/mL) | 0.5 (≈ 0.217 µg/mL) | > 50 | 8 (≈ 3.47 µg/mL) | 16 (≈ 6.94 µg/mL) | ≤ 0.03 | 0.06 (≈ 0.026 µg/mL) | 0.125 (≈ 0.0542 µg/mL) |  |  |  | 
11 | CCCCCCCCCCCNC(=O)NNC(=O)c1cc([N+](=O)[O-])cc([N+](=O)[O-])c1 [Compound 4k, 2-(3,5-Dinitrobenzoyl)-N-undecylhydrazine-1-carboxamide] | 1 (≈ 0.423 µg/mL) | 1 (≈ 0.423 µg/mL) | < 100 | > 500 | > 500 | 2 (≈ 0.847 µg/mL) | 4 (≈ 1.69 µg/mL) | 4 (≈ 1.69 µg/mL) |  |  |  | 99.9
12 | CCCCCCCNC(=O)NNC(=O)c1cc([N+](=O)[O-])cc([N+](=O)[O-])c1 [Compound 4g, 2-(3,5-Dinitrobenzoyl)-N-heptylhydrazine-1-carboxamide] | 0.5 (≈ 0.184 µg/mL) | 0.5 (≈ 0.184 µg/mL) | 117 | 125 (≈ 45.9 µg/mL) | 250 (≈ 91.8 µg/mL) | 1 (≈ 0.367 µg/mL) | 1 (≈ 0.367 µg/mL) | 1 (≈ 0.367 µg/mL) | 125 to 250 (≈ 45.9 to 91.8 µg/mL) |  |  | 
13 | CCCCCCCCCCNc1nnc(-c2cc([N+](=O)[O-])cc([N+](=O)[O-])c2)o1 [Compound 5j, N-Decyl-5-(3,5-dinitrophenyl)-1,3,4-oxadiazol-2-amine] | 0.5 (≈ 0.196 µg/mL) | 1 (≈ 0.391 µg/mL) | > 100 | 4 (≈ 1.57 µg/mL) | 8 (≈ 3.13 µg/mL) | 1 (≈ 0.391 µg/mL) | 1 (≈ 0.391 µg/mL) | 1 (≈ 0.391 µg/mL) |  |  |  | 
14 | CCCCCCCCCNC(=O)NNC(=O)c1cc([N+](=O)[O-])cc([N+](=O)[O-])c1 [Compound 4i, 2-(3,5-Dinitrobenzoyl)-N-nonylhydrazine-1-carboxamide] | 0.5 (≈ 0.198 µg/mL) | 1 (≈ 0.395 µg/mL) | 125 | 125 (≈ 49.4 µg/mL) | 250 (≈ 98.9 µg/mL) | 1 (≈ 0.395 µg/mL) | 1 (≈ 0.395 µg/mL) | 1 (≈ 0.395 µg/mL) | 125 to 250 (≈ 49.4 to 98.9 µg/mL) |  |  | 
15 | O=[N+]([O-])c1cc(-c2nnc(NCc3ccc(Cl)cc3)o2)cc([N+](=O)[O-])c1 [Compound 7c, N-(4-Chlorobenzyl)-5-(3,5-dinitrophenyl)-1,3,4-oxadiazol-2-amine] | 0.125 (≈ 0.047 µg/mL) | 0.125 (≈ 0.047 µg/mL) |  | 1 (≈ 0.376 µg/mL) | 2 (≈ 0.751 µg/mL) | 0.125 (≈ 0.047 µg/mL) | 0.125 (≈ 0.047 µg/mL) | 0.25 (≈ 0.0939 µg/mL) |  |  |  | 
16 | O=[N+]([O-])c1cc(-c2nnc(NCc3ccc(Br)cc3)o2)cc([N+](=O)[O-])c1 [Compound 7e, N-(4-Bromobenzyl)-5-(3,5-dinitrophenyl)-1,3,4-oxadiazol-2-amine] | 0.25 (≈ 0.105 µg/mL) | 0.25 (≈ 0.105 µg/mL) |  | 2 (≈ 0.84 µg/mL) | 4 (≈ 1.68 µg/mL) | 0.25 (≈ 0.105 µg/mL) | 0.5 (≈ 0.21 µg/mL) | 0.5 (≈ 0.21 µg/mL) |  |  |  | 
17 | CCCCCCCCCCCCCCCCCNC(=O)NNC(=O)c1cc([N+](=O)[O-])cc([N+](=O)[O-])c1 [Compound 4q, 2-(3,5-Dinitrobenzoyl)-N-heptadecylhydrazine-1-carboxamide] | 8 (≈ 4.06 µg/mL) | 16 (≈ 8.12 µg/mL) |  | > 500 | > 500 | 8 (≈ 4.06 µg/mL) | 16 (≈ 8.12 µg/mL) | 16 (≈ 8.12 µg/mL) |  |  |  | 
18 | CNc1nnc(-c2cc([N+](=O)[O-])cc([N+](=O)[O-])c2)o1 [Compound 5a, 5-(3,5-Dinitrophenyl)-N-methyl-1,3,4-oxadiazol-2-amine] | 8 (≈ 2.12 µg/mL) | 16 (≈ 4.24 µg/mL) |  | 500 (≈ 133 µg/mL) | 500 (≈ 133 µg/mL) | 16 (≈ 4.24 µg/mL) | 32 (≈ 8.49 µg/mL) | 32 (≈ 8.49 µg/mL) |  |  |  | 
19 | O=[N+]([O-])c1cc(-c2nnc(NCc3ccc(Cl)cc3)s2)cc([N+](=O)[O-])c1 [Compound 8c, N-(4-Chlorobenzyl)-5-(3,5-dinitrophenyl)-1,3,4-thiadiazol-2-amine] | ≤ 0.03 | ≤ 0.03 |  | 2 (≈ 0.784 µg/mL) | 2 (≈ 0.784 µg/mL) | 0.06 (≈ 0.0235 µg/mL) | 0.125 (≈ 0.049 µg/mL) | 0.125 (≈ 0.049 µg/mL) |  |  |  | 
20 | O=[N+]([O-])c1cc(-c2nnc(NCc3ccc(Cl)cc3Cl)s2)cc([N+](=O)[O-])c1 [Compound 8d, N-(2,4-Dichlorobenzyl)-5-(3,5-dinitrophenyl)-1,3,4-thiadiazol-2-amine] | 0.125 (≈ 0.0533 µg/mL) | 0.125 (≈ 0.0533 µg/mL) |  | 2 (≈ 0.852 µg/mL) | 2 (≈ 0.852 µg/mL) | 0.25 (≈ 0.107 µg/mL) | 0.5 (≈ 0.213 µg/mL) | 0.5 (≈ 0.213 µg/mL) |  |  |  | 
21 | CCCNC(=O)NNC(=O)c1cc([N+](=O)[O-])cc([N+](=O)[O-])c1 [Compound 4c, 2-(3,5-Dinitrobenzoyl)-N-propylhydrazine-1-carboxamide] | 16 (≈ 4.98 µg/mL) | 16 (≈ 4.98 µg/mL) |  | 1000 (≈ 311 µg/mL) | 1000 (≈ 311 µg/mL) | 8 (≈ 2.49 µg/mL) | 16 (≈ 4.98 µg/mL) | 16 (≈ 4.98 µg/mL) |  |  |  | 
22 | CCCCCCCCCCCCCCCCCNc1nnc(-c2cc([N+](=O)[O-])cc([N+](=O)[O-])c2)o1 [Compound 5q, 5-(3,5-Dinitrophenyl)-N-heptadecyl-1,3,4-oxadiazol-2-amine] | 32 (≈ 15.7 µg/mL) | > 32 |  | 32 (≈ 15.7 µg/mL) | 64 (≈ 31.3 µg/mL) | 8 (≈ 3.92 µg/mL) | 16 (≈ 7.83 µg/mL) | 32 (≈ 15.7 µg/mL) |  |  |  | 
23 | CCCNc1nnc(-c2cc([N+](=O)[O-])cc([N+](=O)[O-])c2)o1 [Compound 5c, 5-(3,5-Dinitrophenyl)-N-propyl-1,3,4-oxadiazol-2-amine] | 4 (≈ 1.17 µg/mL) | 4 (≈ 1.17 µg/mL) |  | > 500 | > 500 | 4 (≈ 1.17 µg/mL) | 8 (≈ 2.35 µg/mL) | 16 (≈ 4.69 µg/mL) |  |  |  | 
24 | O=[N+]([O-])c1cc(-c2nnc(NCc3ccc(Cl)cc3Cl)o2)cc([N+](=O)[O-])c1 [Compound 7d, N-(2,4-Dichlorobenzyl)-5-(3,5-dinitrophenyl)-1,3,4-oxadiazol-2-amine] | 0.06 (≈ 0.0246 µg/mL) | 0.125 (≈ 0.0513 µg/mL) |  | 1 (≈ 0.41 µg/mL) | 1 (≈ 0.41 µg/mL) | 0.06 (≈ 0.0246 µg/mL) | 0.125 (≈ 0.0513 µg/mL) | 0.125 (≈ 0.0513 µg/mL) |  |  |  | 
